Reference: patent publication US9579322B2, “Methods for treating neurologic disorders” (EIP Pharma, LLC, priority 2014, dated 2017)

Key:
[1] = system: IL-1β signaling and IL-1β production; experiment: Inhibition of IL-1beta signaling versus IL-1beta production; type: cell-based, human; details: for potency for inhibition of cytokine (IL-1beta) signaling relative to inhibition of cytokine production: signaling versus production
[2] = system: sensory-motor recovery after tMCAO; experiment: Transient MCAO in rats, functional recovery; type: in vivo, Sprague-Dawley rats; details: for change in cylinder test performance from day 7 to day 35: relative to vehicle; for functional recovery, 7-point neuroscore / functional recovery, 20-point neuroscore / functional recovery, limb placing: day 3 to day 42, versus vehicle
Method: The objective of this study was to investigate whether chronic twice-a-day treatment with VX-745 started at 48 hours post-occlusion provides sensory-motor recovery and neuroprotection in rats subjected to 120 min middle cerebral artery occlusion (tMCAO) at day 0. Seven and 20-point Neuroscore tests were performed to study sensory-motor deficits and general condition on days 1, 3, 7, 14, 21, 28, 35 and 42 post-ischemia. Cylinder test was performed on days 7, 14, 21 and 35 post-ischemia and limb-placing tests on days 1, 3, 7, 14, 21, 28, 35 and 42. Infarct volume was evaluated by T2-MRI at 24 h post-ischemia and rats were allocated to treatment groups based on the lesion data on day 2 and treatment was started after MRI on day 2. Methods—Male Sprague-Dawley rats were subjected to twice-a-day chronic treatment with VX-745 starting at 48 h after 120 min tMCAO. Lesion size was measured at 24 h with MRI and rats were allocated to dosing groups on day 2 (tMCAO performed on day 0) based on lesion size and limb placing results. Rats were treated with 2 different doses and underwent sensorimotor behavioral test throughout the experiment. Seven and 20-point Neuroscore and limb placing tests were performed to study sensory-motor deficits and general condition before occlusion and on days 1, 3, 7, 14, 21, 28, 35 and 42 post-ischemia. Cylinder test was performed before occlusion and on days 7, 14, 21 and 35 post-ischemia. Animals. Altogether 45 adult male Sprague Dawley rats, purchased from Charles River Laboratories (Sulzfeld, Germany), and weighing 250-300 g were used for the experiment. Animals were housed at a standard temperature (22±1° C.) and in a light-controlled environment (lights on from 7 am to 8 pm) with ad libitum access to food and water. • Group A: 15 tMCAO animals treated twice-a-day with vehicle from day 2 to 42 (5 ml/kg, p.o) • Group B: 15 tMCAO animals treated twice-a-day with VX-745 from day 2 to 42 (1.5 mg/kg, p.o). • Group C: 15 tMCAO animals treated twice-a-day with VX-745 from day 2 to 42 (4.5 mg/kg, p.o). Transient MCAO Transient focal cerebral ischemia was produced by MCA occlusion at Day 0 in male Sprague-Dawley rats according to Koizumi with modifications (Koizumi et al. Jpn. J. Stroke 8:1-8, 1986). The rats were anesthetized with 5% isoflurane (in 70% N2O and 30% O2; flow 300 ml/min). During the operation the concentration of anesthetic was reduced to 1.0-2.0%. The rectal temperature was maintained at 37.0±1.0° C. with a homeothermic blanket system. After midline skin incision, the right common carotid artery (CCA) was exposed, and the external carotid artery (ECA) was ligated distal from the carotid bifurcation. A 0.22-mm diameter monofilament nylon thread, with blunted tip, was inserted 22-23 mm into the internal carotid artery (ICA) up to the origin of MCA. After the monofilament insertion, CCA was occluded for 2 hours with a suture. After 120 min of ischemia, the MCA blood flow was restored by removal of the filament and the suture. The wound was closed, disinfected, and the animals were allowed to recover from anesthesia. The rats were carefully monitored for possible post-surgical complications after the tMCAO. The rats were fed with standard laboratory diet suspended in tap water after the tMCAO. To prevent dehydration all rats were given an i.p. injection of saline (4 mL per rat) once or twice-a-day as needed. Drug Delivery. VX-745 or vehicle was administered p.o. (5 ml/kg) starting after MRI at 48 h post-ischemia (i.e. Day 2) and continued twice-a day (morning and afternoon) until endpoint day 42. MRI acquisitions in vivo for all rats were performed at 24 h after tMCAO (i.e. […] Rats were allocated to treatment groups on day 2 based on the lesion data and treatment was started on day 2. A 20-point Neuroscore test was used to assess post-ischemic motor and behavioral deficits. The neurological test was conducted by a blinded investigator at pre-stroke (baseline) and on days 1, 3, 7, 14, 21, 28, 35 and 42 post-ischemia. […]

paw swelling = details: 10 mg/kg, reference compound in arthritis model; cited from earlier work
knee degeneration = details: rats, 50 mg/kg, compared to control animals; cited from earlier work

With VX-745 the “IC50 for inhibition of IL-1β signaling relative to IC50 for inhibition of IL-1β production” value ([1]; human systems, prior, previously undisclosed studies) was “approximately half”, the “potency for inhibition of cytokine (IL-1beta) signaling relative to inhibition of cytokine production” value [1] was “approximately twice” and the “potency for inhibition of cytokine (IL-1beta) signaling relative to inhibition of cytokine production” value ([1]; listed as VX745) was “two-fold higher”. For the same substance, the “change in cylinder test performance from day 7 to day 35” value ([2]; 1.5 mg/kg p.o. twice-a-day) was “a trend (p=0.088, two-sided t-test) towards increased improvement”, the “functional recovery, 7-point neuroscore” value ([2]; 1.5 mg/kg) was “not further improve functional recovery” and the “functional recovery, 20-point neuroscore” value ([2]; 1.5 mg/kg) was “not further improve functional recovery”. The “functional recovery, limb placing” value ([2]; 1.5 mg/kg) was “not further improve functional recovery”, the “change in cylinder test performance from day 7 to day 35” value ([2]; 4.5 mg/kg p.o. twice-a-day) was “not evident” and the “functional recovery, 7-point neuroscore” value ([2]; 4.5 mg/kg) was “not further improve functional recovery”. The “functional recovery, 20-point neuroscore” value ([2]; 4.5 mg/kg) was “not further improve functional recovery”, the “functional recovery, limb placing” value ([2]; 4.5 mg/kg) was “not further improve functional recovery” and the “functional recovery, 1.5 mg/kg group compared with 4.5 mg/kg group” value ([2]; all measures, change analysis) was “consistently better”. For the same substance, the “inhibition of paw swelling” value (paw swelling) was “not as effective at inhibiting paw swelling as other compounds assayed” and the “inhibition of knee degeneration” value (knee degeneration) was “statistically significant inhibition of knee degeneration”.
